According to patent publication US20260216140A1, “USE OF ERGOTHIONEINE IN PREPARATION OF PRODUCT FOR PREVENTING OR INHIBITING CELL DAMAGE CAUSED BY ACETALDEHYDE” (BLOOMAGE BIOTECHNOLOGY CORPORATION LIMITED, priority 2022, published 2026):
Structures can show the parent of a compound that is named as a salt.

Key:
Assay type in all cases: cell-based
[1] = test system: CA9-22 cells; assay: MTT cell activity of CA9-22 cells co-cultured with acetaldehyde (cell damage dose finding); conditions: for Cell activity: 1 day, MTT, T/NT vs untreated = 100%
Description: • Experimental materials: acetaldehyde, DMEM medium. • Experimental sample solutions: 17.7 M acetaldehyde was diluted with DMEM medium to prepare experimental sample solutions with different final concentrations, and the concentrations are shown in Table 2. • Methods: After CA9-22 cells were co-cultured with different experimental sample solutions for 1 day, the experimental sample solutions were removed and MTT was added. After 3 hours, the supernatant was carefully aspirated and dimethyl sulfoxide (DMSO) was added. The absorbance of each well at 550 nm was detected by a microplate reader. The untreated well was used as control, the absorbance of the sample well was defined as T, the absorbance of the untreated well was defined as NT, NT was taken as 100%, and the ratio of T/NT of the sample well was taken as the cell activity.

[2] = test system: CA9-22 cells; assay: MTT cell activity of CA9-22 cells co-cultured with acetaldehyde plus ergothioneine (inhibition of acetaldehyde cell damage); conditions: for Cell activity: 1 day, MTT
Description: • Experimental materials: acetaldehyde, ergothioneine and DMEM medium. • Experimental sample solutions: ergothioneine powder and 17.7M acetaldehyde were respectively diluted with DMEM medium, and then the two solutions were mixed in different ratios to prepare experimental sample solutions with different final concentrations, and the concentrations are shown in Table 3. • Methods: After CA9-22 cells were co-cultured with different experimental sample solutions for 1 day, the experimental sample solutions were removed and MTT was added. After 3 hours, the supernatant was carefully aspirated and dimethyl sulfoxide (DMSO) was added. The absorbance of each well at 550 nm was detected by a microplate reader. The untreated wells was used as control, the absorbance of the sample wells was defined as T, the absorbance of the untreated well was defined as NT, NT was taken as 100%, and the ratio of T/NT of the sample well was taken as the cell activity. On the basis of meeting the requirements of significant difference, the greater the cell activity %, the better the effect of inhibiting cell damage caused by acetaldehyde.

[3] = test system: CA9-22 cells; assay: MTT cell activity of CA9-22 cells co-cultured with ergothioneine alone (cytotoxicity); conditions: for Cell activity: 1 day, MTT, T/NT vs untreated = 100%
Description: • Experimental materials: ergothioneine, DMEM medium. • Experimental sample solutions: ergothioneine powder was dissolved in DMEM medium to prepare experimental sample solutions with different final concentrations, and the concentrations are shown in Table 1. • Methods: CA9-22 cells purchased from ATCC were co-cultured with different experimental sample solutions for 1 day, then the experimental sample solutions were removed and MTT was added. After 3 hours, the supernatant was carefully aspirated and dimethyl sulfoxide (DMSO) was added. The absorbance of each well at 550 nm was detected by a microplate reader. The untreated well was used as control, the absorbance of the sample well was defined as T, the absorbance of the untreated well was defined as NT, NT was taken as 100%, and the ratio of T/NT of the sample well was taken as the cell activity.

Q: With CC=O [Acetaldehyde, acetaldehyde] as the compound, how does the Cell activity ([1]; acetaldehyde 0.0001M) read?
A: 96%

Q: What about the Cell activity ([1]; acetaldehyde 0.001M) of the same compound?
A: 93%

Q: And the Cell activity ([1]; acetaldehyde 0.005M)?
A: 93%

Q: What about the Cell activity ([1]; acetaldehyde 0.01M) of the same compound?
A: 89%

Q: What about the Cell activity ([1]; acetaldehyde 0.02M) of the same compound?
A: 70%

Q: What about the “Cell damage after treating cells” value ([1]; different concentrations of acetaldehyde, more obvious with increasing concentration) of the same compound?
A: will cause cell damage

Q: And the Cell activity ([2]; acetaldehyde 0.02 M alone, no ergothioneine (sample 2))?
A: 70%

Q: And the Cell activity ([2]; acetaldehyde 0.02 M alone, no ergothioneine (sample 2), listed as acetaldehyde)?
A: 70%

Q: Which results are given for C[N+](C)(C)[C@@H](Cc1c[nH]c(=S)[nH]1)C(=O)[O-] [Ergothioneine, 2-mercaptohistidine trimethyl internal salt]?
A: Cytotoxicity ([3]; 0.1-12.5 μM, test conditions of Example 1): no cytotoxicity; Cell activity ([3]; ergothioneine 0.1 μM): 101%; Cell activity ([3]; ergothioneine 0.5 μM): 100%; Cell activity ([3]; ergothioneine 2.5 μM): 107%; Cell activity ([3]; ergothioneine 12.5 μM): 106%; Cell activity ([2]; acetaldehyde 0.02 M + ergothioneine 0.01 μM (sample 3)): 71%; Cell activity ([2]; acetaldehyde 0.02 M + ergothioneine 0.05 μM (sample 4)): 76%; Cell activity ([2]; acetaldehyde 0.02 M + ergothioneine 0.1 μM (sample 5)): 81%; Cell activity ([2]; acetaldehyde 0.02 M + ergothioneine 0.5 μM (sample 6)): 83%; Cell activity ([2]; acetaldehyde 0.02 M + ergothioneine 2.5 μM (sample 7)): 83%; Cell activity ([2]; acetaldehyde 0.02 M + ergothioneine 12.5 μM (sample 8)): 85%; Effect on cell damage caused by acetaldehyde ([2]; acetaldehyde 0.02 M, ergothioneine added): can reduce the cell damage caused by acetaldehyde
